Results as given in ChEMBL document CHEMBL1201862, “PubChem BioAssay data set” (2004).
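Cells were grown in 96-well plates and exposed to each compound for 48 hours at five concentrations; endpoints were interpolated linearly between bracketing concentrations, or set to the highest concentration if not reached. At the GI50, growth is halved.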 Active and inactive are the calls of the source. Cut-off read from the data, not from the text of the source: active = GI50 up to about 1.1 µM and inactive = higher.

Tests used:
Assay in all cases: NCI anticancer screen, dose series, 48 h
A498 = tested on: A498
A549 = tested on: A549
EKVX = tested on: EKVX
HL-60 = tested on: HL-60
K562 = tested on: K562
LOX IMVI = tested on: LOX IMVI
MCF7 = tested on: MCF7
MDA-MB-231 = tested on: MDA-MB-231
OVCAR-3 = tested on: OVCAR-3
SF-268 = tested on: SF-268
SF-295 = tested on: SF-295
SF-539 = tested on: SF-539
SK-OV-3 = tested on: SK-OV-3
SNB-19 = tested on: SNB-19
SNB-75 = tested on: SNB-75
T47D = tested on: T47D
UACC-257 = tested on: UACC-257
UO-31 = tested on: UO-31
NCI-H226 = tested on: NCI-H226
OVCAR-4 = tested on: OVCAR-4

Row | Compound | GI50 (A498) | GI50 (A549) | GI50 (EKVX) | GI50 (HL-60) | GI50 (K562) | GI50 (LOX IMVI) | GI50 (MCF7) | GI50 (MDA-MB-231) | GI50 (OVCAR-3) | GI50 (SF-268) | GI50 (SF-295) | GI50 (SF-539) | GI50 (SK-OV-3) | GI50 (SNB-19) | GI50 (SNB-75) | GI50 (T47D) | GI50 (UACC-257) | GI50 (UO-31) | GI50 (NCI-H226) | GI50 (OVCAR-4)
1 | Cc1cc2c(cc1C)[n+]([O-])c(C(F)(F)F)c(C(=O)c1ccccc1)[n+]2[O-] | 4.44 µM (inactive) | 1.42 µM (inactive) | 0.785 µM (active) | 1.69 µM (inactive) | 2.27 µM (inactive) | 2.17 µM (inactive) | 3.27 µM (inactive) | 2.3 µM (inactive) | 0.227 µM (active) | 1.91 µM (inactive) | 2.4 µM (inactive) | 5.07 µM (inactive) | 4 µM (inactive) | 3.56 µM (inactive) | 3.32 µM (inactive) | 0.724 µM (active) | 3.02 µM (inactive) | 0.484 µM (active) |  | 
2 | CNC1C(O)C(OC2C(N)CC(N)C(OC3OC(C(C)O)C(O)C(O)C3N)C2O)OCC1(C)O (stereo not given) | > 100 µM (inactive) | > 100 µM (inactive) | > 100 µM (inactive) | > 100 µM (inactive) | > 100 µM (inactive) | > 100 µM (inactive) | > 100 µM (inactive) | > 100 µM (inactive) | > 100 µM (inactive) | > 100 µM (inactive) | > 100 µM (inactive) | > 100 µM (inactive) | > 100 µM (inactive) | > 100 µM (inactive) | > 100 µM (inactive) | > 100 µM (inactive) |  | > 100 µM (inactive) | > 100 µM (inactive) | > 100 µM (inactive)
3 | NNC(=O)CSc1nc2ccccc2c(=O)n1N | > 100 µM (inactive) | > 100 µM (inactive) | 53.8 µM (inactive) |  | > 100 µM (inactive) | 43.4 µM (inactive) | 91.8 µM (inactive) | 17.3 µM (inactive) | > 100 µM (inactive) | 39.9 µM (inactive) | 31.4 µM (inactive) | 31 µM (inactive) |  | 14.9 µM (inactive) | 13.5 µM (inactive) | > 100 µM (inactive) | > 100 µM (inactive) | > 100 µM (inactive) | > 100 µM (inactive) | > 100 µM (inactive)
4 | Cc1cc2c(O)c(c1)CN(CC(=O)O)Cc1cc(C)cc(c1O)CN(CC(=O)O)Cc1cc(C)cc(c1O)CN(CC(=O)O)C2 | > 100 µM (inactive) | > 100 µM (inactive) | > 100 µM (inactive) |  | > 100 µM (inactive) | > 100 µM (inactive) | > 100 µM (inactive) | > 100 µM (inactive) | > 100 µM (inactive) | > 100 µM (inactive) | > 100 µM (inactive) | > 100 µM (inactive) | > 100 µM (inactive) | > 100 µM (inactive) | > 100 µM (inactive) | > 100 µM (inactive) | > 100 µM (inactive) | > 100 µM (inactive) | > 100 µM (inactive) | > 100 µM (inactive)
5 | COc1ccc(C(OCC2OC(n3ccc(Oc4c(F)c(F)c(F)c(F)c4F)nc3=O)CC2OP(OCCC#N)N(C(C)C)C(C)C)(c2ccccc2)c2ccc(OC)cc2)cc1 (stereo not given) | > 100 µM (inactive) | > 100 µM (inactive) | > 10 µM (inactive) | > 100 µM (inactive) | > 100 µM (inactive) | > 100 µM (inactive) | > 100 µM (inactive) | > 100 µM (inactive) | > 100 µM (inactive) | > 100 µM (inactive) | > 100 µM (inactive) | > 100 µM (inactive) | > 100 µM (inactive) | > 100 µM (inactive) | > 100 µM (inactive) | > 100 µM (inactive) | > 100 µM (inactive) | > 100 µM (inactive) | > 100 µM (inactive) | 
6 | O=C(O)COc1c(Cl)cc(Cl)c(C(c2c(Cl)cc(Cl)c(OCC(=O)O)c2Cl)C(Cl)(Cl)Cl)c1Cl | 35.7 µM (inactive) | 30.1 µM (inactive) |  | 21.7 µM (inactive) | 33.3 µM (inactive) | 33.7 µM (inactive) | 36.1 µM (inactive) | 24.9 µM (inactive) |  | 39.6 µM (inactive) | 25 µM (inactive) | 29.2 µM (inactive) | 20.9 µM (inactive) | > 100 µM (inactive) | 29.6 µM (inactive) | 30.3 µM (inactive) | 26.2 µM (inactive) | 23 µM (inactive) | 21.4 µM (inactive) | 30.8 µM (inactive)
7 | O=C1NN(Cc2ccccc2)C(=O)N2CCC[C@@H]12 | > 100 µM (inactive) | > 100 µM (inactive) | > 100 µM (inactive) | > 100 µM (inactive) |  | > 100 µM (inactive) | > 100 µM (inactive) | > 100 µM (inactive) | > 100 µM (inactive) | > 100 µM (inactive) | > 100 µM (inactive) | > 100 µM (inactive) | > 100 µM (inactive) | > 100 µM (inactive) | 0.0179 µM (active) | > 100 µM (inactive) | > 100 µM (inactive) |  | 0.0505 µM (active) | > 100 µM (inactive)
8 | Sc1nnc(Cc2ccc(Cl)cc2)[nH]1 | 57.4 µM (inactive) | 44.1 µM (inactive) | 47.1 µM (inactive) |  | 48.8 µM (inactive) | 38.1 µM (inactive) | 51.9 µM (inactive) | 42.3 µM (inactive) | > 100 µM (inactive) |  | 43.7 µM (inactive) | 66.4 µM (inactive) | 68.5 µM (inactive) | 71 µM (inactive) | 33.2 µM (inactive) | 29.4 µM (inactive) | 60.5 µM (inactive) | 32.4 µM (inactive) | 65.5 µM (inactive) | 71.9 µM (inactive)
9 | CCCCCC1CC=CC(=O)O1 (stereo not given) | 26.1 µM (inactive) | 6.81 µM (inactive) | 3.24 µM (inactive) | 4.93 µM (inactive) | 5.4 µM (inactive) | 7.62 µM (inactive) | 6.52 µM (inactive) | 10.6 µM (inactive) | 10.5 µM (inactive) | 10.6 µM (inactive) | 11.5 µM (inactive) | 1.32 µM (inactive) | 7.53 µM (inactive) | 10.5 µM (inactive) |  | 11.4 µM (inactive) | 14.1 µM (inactive) | 8.89 µM (inactive) |  | 1.18 µM (inactive)
10 | Cc1nc(N)c(N2CCN(S(=O)(=O)N(Cc3ccccc3)Cc3ccccc3)CC2)c(O)n1 | > 10 µM (inactive) | 82.6 µM (inactive) | 58.6 µM (inactive) | 57.7 µM (inactive) | > 100 µM (inactive) | > 100 µM (inactive) | 72.3 µM (inactive) | 62.4 µM (inactive) | 20.6 µM (inactive) | 28.6 µM (inactive) | 26.4 µM (inactive) | 23.2 µM (inactive) |  | 25 µM (inactive) | 10.9 µM (inactive) | 15.3 µM (inactive) | 25.4 µM (inactive) | > 100 µM (inactive) | 30.1 µM (inactive) | 22.2 µM (inactive)
11 | O=S(=O)(O)CCCc1cccc2ccccc12 | > 100 µM (inactive) | > 100 µM (inactive) | > 100 µM (inactive) | 31.3 µM (inactive) | > 100 µM (inactive) | > 100 µM (inactive) | > 100 µM (inactive) | > 100 µM (inactive) | > 100 µM (inactive) | > 100 µM (inactive) | > 100 µM (inactive) | > 100 µM (inactive) | > 100 µM (inactive) | > 100 µM (inactive) | > 100 µM (inactive) | > 100 µM (inactive) | > 100 µM (inactive) | > 100 µM (inactive) | > 100 µM (inactive) | > 100 µM (inactive)
12 | CCOC(=O)c1cnc2oc3ccc(O)cc3c2c1C | 98.2 µM (inactive) | > 100 µM (inactive) | 35 µM (inactive) | > 100 µM (inactive) | > 100 µM (inactive) | > 100 µM (inactive) | > 100 µM (inactive) | > 100 µM (inactive) | 33.9 µM (inactive) |  | 78.7 µM (inactive) | 39.8 µM (inactive) | 53.6 µM (inactive) | > 100 µM (inactive) |  | 38.5 µM (inactive) | > 100 µM (inactive) |  | > 100 µM (inactive) | 33.7 µM (inactive)
13 | CNc1nc2c(C)ccc3nc(N(C)C)nc-3c2n1C | > 10 µM (inactive) | > 10 µM (inactive) | > 10 µM (inactive) |  | > 10 µM (inactive) |  | > 10 µM (inactive) | > 10 µM (inactive) | > 10 µM (inactive) | > 10 µM (inactive) | > 10 µM (inactive) | > 10 µM (inactive) | > 10 µM (inactive) | > 10 µM (inactive) | > 10 µM (inactive) | > 10 µM (inactive) | > 10 µM (inactive) | > 10 µM (inactive) | > 10 µM (inactive) | > 10 µM (inactive)
14 | CC(C)=CCc1c2c(c3occ(-c4ccc(O)c(O)c4)c(=O)c3c1O)C=CC(C)(C)O2 [POMIFERIN] | 15.3 µM (inactive) | 2.55 µM (inactive) | 4.86 µM (inactive) |  | 2.29 µM (inactive) | 2.19 µM (inactive) | 1.34 µM (inactive) | 1.39 µM (inactive) | 1.66 µM (inactive) | 1.87 µM (inactive) | 3.77 µM (inactive) | 1.91 µM (inactive) | 6.71 µM (inactive) | 1.96 µM (inactive) | 3.61 µM (inactive) | 1.86 µM (inactive) | 1.91 µM (inactive) | 1.54 µM (inactive) | 16.9 µM (inactive) | 1.59 µM (inactive)
15 | C[C@H](CCC(=O)O)[C@H]1CC[C@H]2[C@@H]3[C@@H](O)C[C@@H]4C[C@H](O)CC[C@]4(C)[C@H]3CC[C@]12C [URSODIOL] | > 100 µM (inactive) | > 100 µM (inactive) | > 100 µM (inactive) | > 100 µM (inactive) | 72.8 µM (inactive) | > 100 µM (inactive) | > 100 µM (inactive) | > 100 µM (inactive) |  | > 100 µM (inactive) |  | > 100 µM (inactive) |  | > 100 µM (inactive) | 99.1 µM (inactive) | > 100 µM (inactive) | > 100 µM (inactive) | 70 µM (inactive) | > 100 µM (inactive) | > 100 µM (inactive)
